Our source for the Inhibition, MIC and inhibition values is ChEMBL document CHEMBL1146905, “Synthesis and evaluation of phenoxy acetic acid derivatives as [corrected] anti-mycobacterial agents” (2006).

Structures are written as SMILES. Converted amounts (≈) assume the structure as drawn.

Type in all cases: functional
Test [1] relates to Mycobacterium tuberculosis. The test is described as follows: Antimycobacterial activity against INH-resistant Mycobacterium tuberculosis by agar dilution method above 6.25 ug/ml. A general note: In agar dilution the substance is mixed into plates at graded concentrations.
The test system of test [2] is Mycobacterium tuberculosis. The experiment in a line: Antimycobacterial activity against INH-resistant Mycobacterium tuberculosis by agar dilution method.
Test [3] concerns Mycobacterium tuberculosis. The test is described as follows: Antimycobacterial activity against INH-resistant Mycobacterium tuberculosis by agar dilution method at 6.25 ug/ml.

As a reminder, the Inhibition is the percentage by which the read-out fell short of the control. What is called MIC is the lowest concentration found to suppress growth. Turning to `COc1cc(C2=NN(C(=O)c3ccc([N+](=O)[O-])cc3)C3CCCC23)c(C)cc1OCC(=O)O` (stereo not drawn), the Inhibition in test [1] came out at 30%. This molecule registered an MIC in test [2] of over 6.25 µg/mL.
By inhibition is commonly meant the percentage by which the read-out fell short of the control. High values mean a strong effect, low ones a weak effect. `COc1cc(C2=NN(C(=O)COc3ccccc3)C(Cc3ccccc3)C2)c(C)cc1OCC(=O)O` (stereo not drawn) gave an MIC in test [2] of over 6.25 µg/mL. Further, in test [3], 6.25 µg/mL produced 92% inhibition.
For the molecule `COc1cc(C2=NN(C(=O)COc3ccc4ccccc4c3)C(c3ccc(O)cc3)C2)c(C)cc1OCC(=O)O` (stereo not drawn), in test [2], the MIC worked out at 0.7 µg/mL (≈ 1.29 µM). This molecule also showed an inhibition at 6.25 µg/mL in test [3] of 99%.
With `COc1cc(C2=NN(C(=O)COc3ccccc3)C3CCCC23)c(C)cc1OCC(=O)O` (stereo not drawn), the Inhibition in test [1] worked out at 85%. The molecule further showed an MIC in test [2] of over 6.25 µg/mL.
In turn, `COc1cc(C2=NN(C(=O)COc3cccc4ccccc34)C(c3ccc(O)cc3)C2)c(C)cc1OCC(=O)O` (stereo not drawn) gave an Inhibition in test [1] of 58%. For the same molecule, in test [2], the minimum inhibitory concentration (MIC) was over 6.25 µg/mL.
As to `COc1cc(C2=NN(C(=O)COc3cccc4ccccc34)C3CCCC23)c(C)cc1OCC(=O)O` (stereo not drawn), in test [1], the Inhibition came to 50%. The same molecule came in with an MIC in test [2] of over 6.25 µg/mL.
For `COc1cc(C2=NN(C(=O)c3ccccc3)C(Cc3ccccc3)C2)c(C)cc1OCC(=O)O` (stereo not drawn), in test [1], the Inhibition worked out at 18%. Besides, the MIC in test [2] is over 6.25 µg/mL.
In turn, `NNC(=O)c1ccncc1` [ISONIAZID] had an MIC in test [2] of 1.56 µg/mL (≈ 11.4 µM). In test [3], testing at 6.25 µg/mL gave an inhibition of 90%.
With `COc1cc(C2=NN(C(=O)c3ccccc3)C3CCCC23)c(C)cc1OCC(=O)O` (stereo not drawn), the Inhibition in test [1] came out at 42%. The MIC in test [2] is over 6.25 µg/mL.
In turn, `COc1cc(C2=NN(C(=O)COc3ccc4ccccc4c3)C(Cc3ccccc3)C2)c(C)cc1OCC(=O)O` (stereo not drawn) returned an MIC in test [2] of 0.94 µg/mL (≈ 1.75 µM). The molecule also had an inhibition at 6.25 µg/mL in test [3] of 90%.
The molecule `COc1cc(C2=NN(C(=O)c3ccc([N+](=O)[O-])cc3)C(c3ccc(O)cc3)C2)c(C)cc1OCC(=O)O` (stereo not drawn) came in with an Inhibition in test [1] of 70%. For the same molecule, in test [2], 6.25 µg/mL (≈ 12.4 µM) was the least that counted as inhibitory (MIC).
Molecule `COc1cc(C2=NN(C(=O)Cc3ccccc3)C3CCCC23)c(C)cc1OCC(=O)O` (stereo not drawn) gave an Inhibition in test [1] of 24%. The molecule further yielded an MIC in test [2] of over 6.25 µg/mL.
In turn, `COc1cc(C2=NN(C(=O)Cc3ccccc3)C(Cc3ccccc3)C2)c(C)cc1OCC(=O)O` (stereo not drawn) came in with an Inhibition in test [1] of 34%. In test [2], the MIC was over 6.25 µg/mL.
In the case of `COc1cc(C2=NN(C(=O)COc3ccccc3)C(c3ccc(O)cc3)C2)c(C)cc1OCC(=O)O` (stereo not drawn), the MIC in test [2] was 0.64 µg/mL (≈ 1.3 µM). The same molecule yielded an inhibition at 6.25 µg/mL in test [3] of 99%.
In the case of `COc1cc(C2=NN(C(=O)c3ccc([N+](=O)[O-])cc3)C(Cc3ccccc3)C2)c(C)cc1OCC(=O)O` (stereo not drawn), the Inhibition in test [1] is on record as 50%. In test [2], this molecule registered an MIC of over 6.25 µg/mL.
Taken in the same sequence, the figures for `COc1cc(C2=NN(C(=O)COc3cccc4ccccc34)C(Cc3ccccc3)C2)c(C)cc1OCC(=O)O` (stereo not drawn) were 20% and over 6.25 µg/mL.
In test [1], `COc1cc(C2=NN(C(=O)c3ccccc3)C(c3ccc(O)cc3)C2)c(C)cc1OCC(=O)O` (stereo not drawn) had an Inhibition of 72%. The molecule further showed an MIC in test [2] of over 6.25 µg/mL.
Taken in the same sequence, the figures for `COc1cc(C2=NN(C(=O)Cc3ccccc3)C(c3ccc(O)cc3)C2)c(C)cc1OCC(=O)O` (stereo not drawn) were 22% and over 6.25 µg/mL.
In the case of `COc1cc(C2=NN(C(=O)COc3ccc4ccccc4c3)C3CCCC23)c(C)cc1OCC(=O)O` (stereo not drawn), in test [1], the Inhibition turned out to be 94%. For the same molecule, the minimal inhibitory concentration (MIC) in test [2] worked out at 6.25 µg/mL (≈ 12.8 µM).
